Test results published in patent publication US7317037B2, “Progesterone receptor modulators comprising pyrrole-oxindole derivatives and uses thereof” (Wyeth, priority 2004, dated 2008).
pIC50: −log10 of the molar value. Read-outs that look alike come from different tables or passages of the source.

Tests used:
[1] = target: T1, progesterone receptor (PR) (Homo sapiens, UniProt P06401); assay: T47D cell alkaline phosphatase assay (antagonist mode); type: cell-based
T1 construct: Effects of Progestins and Antiprogestins on Alkaline Phosphatase Activity in T47D Cells; endogenous in cells; host or cells: T47D cells
T1 sequence (P06401 1-933): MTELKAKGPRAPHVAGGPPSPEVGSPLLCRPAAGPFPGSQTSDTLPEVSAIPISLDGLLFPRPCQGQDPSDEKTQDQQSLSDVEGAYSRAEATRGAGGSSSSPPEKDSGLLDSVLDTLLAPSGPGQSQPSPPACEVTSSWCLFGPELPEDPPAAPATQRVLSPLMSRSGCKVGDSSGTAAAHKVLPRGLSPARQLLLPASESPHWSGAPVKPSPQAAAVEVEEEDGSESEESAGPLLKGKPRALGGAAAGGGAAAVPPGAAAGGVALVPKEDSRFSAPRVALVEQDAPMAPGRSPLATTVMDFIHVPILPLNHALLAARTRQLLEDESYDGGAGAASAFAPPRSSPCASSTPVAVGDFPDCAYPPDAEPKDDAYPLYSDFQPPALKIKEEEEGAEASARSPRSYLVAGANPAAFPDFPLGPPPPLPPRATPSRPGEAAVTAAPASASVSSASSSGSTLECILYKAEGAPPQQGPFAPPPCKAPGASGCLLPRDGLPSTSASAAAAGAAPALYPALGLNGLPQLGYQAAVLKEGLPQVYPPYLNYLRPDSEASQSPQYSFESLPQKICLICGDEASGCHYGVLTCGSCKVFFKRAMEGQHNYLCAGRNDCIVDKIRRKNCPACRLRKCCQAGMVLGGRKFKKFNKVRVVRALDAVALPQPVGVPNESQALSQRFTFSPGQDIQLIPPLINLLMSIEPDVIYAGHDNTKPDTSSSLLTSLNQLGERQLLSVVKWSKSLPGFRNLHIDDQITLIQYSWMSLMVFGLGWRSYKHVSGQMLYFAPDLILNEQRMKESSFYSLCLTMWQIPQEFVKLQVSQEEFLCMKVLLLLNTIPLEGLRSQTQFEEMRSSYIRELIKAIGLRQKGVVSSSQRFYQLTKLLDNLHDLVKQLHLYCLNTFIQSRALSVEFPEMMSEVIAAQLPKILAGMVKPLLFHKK
Experimental: A. Effects of Progestins and Antiprogestins on Alkaline Phosphatase Activity in T47D Cells (T47D Alkaline Phosphatase Assay)
Culture medium: DMEM:F12 (1:1) (GIBCO, BRL) supplemented with 5% (v/v) charcoal stripped fetal bovine serum (not heat-inactivated), 100 U/mL penicillin, 100 μg/mL streptomycin, and 2 mM GlutaMax (GIBCO, BRL).
Alkaline phosphatase assay buffer: I. 0.1M Tris-HCl, pH 9.8, containing 0.2% Triton X-100, 0.1M Tris-HCl, pH 9.8, containing 4 mM p-nitrophenyl phosphate (Sigma).
2. Cell Culture and Treatment:
Frozen T47D cells are thawed in a 37° C. water bath and diluted to 280,000 cells/mL in culture medium. To each well in a 96-well plate (Falcon, Becton Dickinson Labware), 180 μl of diluted cell suspension is added. Twenty μl of reference or test compounds diluted in the culture medium is then added to each well. When testing for progestin antagonist activity, reference antiprogestins or test compounds are added in the presence of 1 nM progesterone. The cells are incubated at 37° C. in a 5% CO2 humidified atmosphere for 24 hours. For high throughput screening, one concentration of each compound will be tested at 0.3 μg/mL. Based on an average molecular weight of 300 g/mol for the compounds in the library, the concentration is approximately 1 μM. Subsequently, active compounds will be tested in dose response assays to determine EC50 and IC50.
3. Alkaline Phosphatase Enzyme Assay:
At the end of treatment, the medium is removed from the plate. Fifty μl of assay buffer I is added to each well. The plates are shaken in a titer plate shaker for 15 min. Then 150 μl of assay buffer II is added to each well. Optical density measurements are taken at 5 min intervals for 30 min at a test wavelength of 405 nm.
4. Analysis of Dose-Response Data.
For reference and test compounds, a dose response curve is generated for dose vs. the rate of enzyme reaction (slope). Square root-transformed data are used for analysis of variance and nonlinear dose response curve fitting for both agonist and antagonist modes. Huber weighting is used to down-weight the effects of outliers. EC50 or IC50 values are calculated from the retransformed values. JMP software (SAS Institute, Inc.) is used for both one-way analysis of variance and non-4 linear dose response analysis in both single dose and dose response studies.
Progesterone and trimegestone are reference progestins and RU486 is the reference antiprogestin. All reference compounds are run in full dose response curves and the EC50 and IC50 values are calculated.

[2] = Cynomolgus monkey intravenous pharmacokinetics; conditions: in vivo, cynomolgus monkeys, 0.25 mg/kg i.v.
Source text: Therefore from the preceding data it is clear that the R6=fluorine group present in 5-(7-fluoro-3,3-dimethyl-2-oxo-2,3-dihydro-1H-indol-5-yl)-1-methyl-1H-pyrrole-2-carbonitrile dramatically improves the pharmacokinetic performance of the molecule. This improved pharmacokinetic performance translates in the cynomolgus menses induction assay to a dramatic improvement in activity.

Q: With `Cn1c(C#N)ccc1-c1cc(F)c2c(c1)C(C)(C)C(=O)N2` [5-(7-fluoro-3,3-dimethyl-2-oxo-2,3-dihydro-1H-indol-5-yl)-1-methyl-1H-pyrrole-2-carbonitrile] as the molecule, how does the pIC50 ([1]; PR antagonist, comparative example text, read-out: IC50 in the T47D alkaline phosphatase assay) read?
A: The pIC50 was 8.47.

Q: And the IC50 ([1]; T47D cells, antagonist mode in the presence of 1 nM progesterone, 24 hours, read-out: IC50 (nM), T47D Cell Alkaline Phosphatase Assay)?
A: The IC50 was 5.4 nM.

Q: And the AUC(0-inf) ([2]; read-out: exposure (AUC0-∞))?
A: Its AUC(0-inf) is 578 ng·h/mL.

Q: What about the half-life ([2]; read-out: mean half life (t1/2) (converted)) of the same molecule?
A: Its half-life is 8.8 h.
